Measurements published in PMC3146814, “The crystal structure of alanine racemase from Streptococcus pneumoniae, a target for structure-based drug design” (BMC Microbiology, 2011).

T1: alanine racemase from S. pneumoniae (AlrSP) (Streptococcus pneumoniae, UniProt P0A2W8)
T1 construct: gene alr; untagged as far as told, gene in pET17, E. coli BL21(DE3) pLysS; monomer residues 1-367; homodimer; Lys129 carbamylated
T1 sequence (P0A2W8 1-367): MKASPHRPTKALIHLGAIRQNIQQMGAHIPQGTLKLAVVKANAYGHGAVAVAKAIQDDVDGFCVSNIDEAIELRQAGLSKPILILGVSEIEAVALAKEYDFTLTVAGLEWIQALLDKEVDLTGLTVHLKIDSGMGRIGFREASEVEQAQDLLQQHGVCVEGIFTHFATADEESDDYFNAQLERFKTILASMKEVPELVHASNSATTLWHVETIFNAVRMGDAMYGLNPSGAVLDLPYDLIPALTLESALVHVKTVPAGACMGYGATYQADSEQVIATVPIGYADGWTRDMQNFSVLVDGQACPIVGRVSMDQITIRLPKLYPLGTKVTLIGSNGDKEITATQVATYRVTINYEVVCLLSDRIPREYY

B1: alanine racemase from Streptococcus pneumoniae (enzyme, UniProt P0A2W8 1-367, looked up)
chain: MKASPHRPTKALIHLGAIRQNIQQMGAHIPQGTLKLAVVKANAYGHGAVAVAKAIQDDVDGFCVSNIDEAIELRQAGLSKPILILGVSEIEAVALAKEYDFTLTVAGLEWIQALLDKEVDLTGLTVHLKIDSGMGRIGFREASEVEQAQDLLQQHGVCVEGIFTHFATADEESDDYFNAQLERFKTILASMKEVPELVHASNSATTLWHVETIFNAVRMGDAMYGLNPSGAVLDLPYDLIPALTLESALVHVKTVPAGACMGYGATYQADSEQVIATVPIGYADGWTRDMQNFSVLVDGQACPIVGRVSMDQITIRLPKLYPLGTKVTLIGSNGDKEITATQVATYRVTINYEVVCLLSDRIPREYY
modifications: PLP covalently bound to Lys40 by an internal aldimine bond (N'-pyridoxyl-lysine-5'-monophosphate, LLP); carbamylated Lys129
notes: alanine racemase (E.C. 5.1.1.1) of Streptococcus pneumoniae; the gene was cloned into pET17; the model holds residues 1-367 of each monomer (734 residues, 100%): alpha/beta barrel domain 1-238 and beta-strand domain 239-367; no tag is named; also called AlrSP; Alr

Assays:
[1] = biological target: T1, alanine racemase from S. pneumoniae (AlrSP); assay: X-ray crystallography, […] Å; format: binding; conditions: covalent; internal aldimine with Lys40 (LLP residue); active site; crystals grown at pH 7.2, 4 °C
[2] = biological target: the molecule itself; assay: crystal structure; sitting drop vapor diffusion at 4°C, 1.2 M Na citrate, 0.1 M MES pH 7.2, 10% glycerol, protein 23 mg/ml; space group P3(1)21, two monomers in the asymmetric unit; 2.0 Å

Molecule | X-ray crystallography, 2.0 Å [1] | stoichiometry N [2]
Cc1ncc(COP(=O)(O)O)c(C=O)c1O [pyridoxal phosphate (PLP)] | The pyridoxal phosphate (PLP) cofactor is connected to Lys40 through an internal aldimine bond | –
B1 | – | 2
